Results as given in patent publication US8834919B2, “Lipid emulsions in the treatment of systemic poisoning” (priority 1998, dated 2014).

Experiments:
[1] = octanol:water; P = [organic]/[aqueous]; cited from earlier work
rats = assay: Pretreatment with lipid emulsion: cocaine toxicity in rats; type: in vivo, rat; details: control (saline), cocaine iv 5 mg/kg/min
Procedure: Because of the significant potential benefit, experiments were performed to test an infusion of a lipid emulsion as a method of treating cocaine toxicity. Anesthetized, ventilated rats were infused with a lipid emulsion (20% Intralipid® at 10 ml/kg for 2 minutes) and then administered an intravenous infusion of cocaine at 5 mg/kg/min to hypotension (blood pressure is less than 40 mmHg) or asystole (no heartbeat for 5 seconds). […] Thus, pretreatment with a lipid emulsion composition shifts the dose-response of cocaine in much the same way as bupivacaine. This is an expected result given the similar properties and effects between cocaine and bupivacaine. These findings indicate that lipid infusion can be used to treat patients experiencing acute cardiovascular compromise in cocaine overdose.

[2] = type: in vivo, rat; details: saline pretreatment (group 1); +/- SEM
Procedure: Immediately following pretreatment, all animals received an infusion of about 0.75% bupivacaine via the internal iliac catheter at a rate of 10 mg/kg/min to an end point of about ten seconds of asystole. Blood was then drawn from the aorta into a heparinized syringe for plasma bupivacaine determinations. The cumulative lethal dose of bupivacaine was calculated in mg/kg for all animals.
Plasma bupivacaine concentrations were determined by high performance liquid chromatograph (HPLC) after the samples had been extracted with hexane. The method of hexane extraction was validated with bupivacaine spiked samples and provided greater than about 95% recovery of bupivacaine from both normal and lipemic plasma. Thus, plasma bupivacaine concentrations reflected total bupivacaine content in both the aqueous and lipid phases of the specimen. […] The drugs were detected at a wavelength of about 215 nm.
Bupivacaine dose and plasma concentrations were analyzed by Kruskal-Wallis one way analysis of variance on ranks. […] Plasma bupivacaine concentration data were parametric and differences in mean values were evaluated. […] The difference in survival of the two groups at 15 mg/kg bupivacaine was further evaluated using a z test of proportions. […]

[3] = Resuscitation from a toxic bupivacaine dose with lipid emulsion (protocol 2); details: male, Sprague-Dawley, rat, in vivo, iv, resuscitation with saline infusion after iv bupivacaine bolus; probit analysis
Procedure: Bupivacaine dose and plasma concentrations were analyzed by Kruskal-Wallis one way analysis of variance on ranks. Post hoc testing of both data sets was performed by Student-Newman-Keul's method for multiple comparisons (SigmaStat, Jandel Scientific/San Rafael, Calif.). Cumulative bupivacaine dose data were nonparametric and median values were compared by differences of ranks. Plasma bupivacaine concentration data were parametric and differences in mean values were evaluated. Probit analysis (CalcuSyn, Biosoft/Cambridge, England) was used to compare bupivacaine LD50 values in the saline and lipid portions. The difference in survival of the two groups at 15 mg/kg bupivacaine was further evaluated using a z test of proportions. Statistical significance in all experiments was taken as p less than or equal to 0.05.
Experiments were performed to evaluate the ability of a lipid emulsion to resuscitate an animal from a toxic dose of bupivacaine. All animals were anaesthetized, instrumented and stabilized at about 1.75% isoflurane as described in Example 1, and arterial blood pressure and ECG were continuously monitored. […] Survival was scored about 5 minutes after the bupivacaine bolus and required both heart rate greater than about 100 beats per minute and systolic blood pressure greater than about 60 mmHg. […]

Male Sprague-Dawley rats = assay: Pretreatment with lipid emulsion: dose-response to bupivacaine induced asystole in rats (protocol 1); type: in vivo, rat
Excerpt: Studies were undertaken to assess the ability of a lipid emulsion to shift the dose-response to drug-induced asystole (heart stoppage) in rats. Pretreatment with a lipid emulsion increased the dose of bupivacaine (a local anesthetic) required to induce asystole. Racemic bupivacaine hydrochloride was purchased from Sigma (St. Louis, Mo.) while tritiated bupivacaine was purchased from Moravek Biochemicals (Brea, Calif.). Intralipid® was purchased from Baxter Healthcare (Deerfield, Ill.). Male Sprague-Dawley rats weighing between about 250 grams to about 370 grams were used in all experiments.
Animals were first anesthetized in a bell jar with isoflurane to allow intubation, then mechanically ventilated with about 1.75% isoflurane in about 100% oxygen using a Harvard rodent ventilatory model 680 in conjunction with a tidal volume of 3 ml and a starting rate of about 40 breaths per minute. […] Electrocardiogram (BCG) was monitored via three subcutaneous needle electrodes in each rat. […]
All animals were allowed to stabilize for about 15 minutes while arterial blood pressure and ECG were monitored. […]
Immediately following pretreatment, all animals received an infusion of about 0.75% bupivacaine via the internal iliac catheter at a rate of 10 mg/kg/min to an end point of about ten seconds of asystole. […] The cumulative lethal dose of bupivacaine was calculated in mg/kg for all animals. […]

[4] = Bupivacaine lipid:aqueous partition in a mixture of Intralipid and rat plasma; type: physicochemical
Procedure: The bupivacaine lipid:aqueous partition coefficient was determined for a mixture of Intralipid® and rat plasma. Blood obtained from rats by direct heart puncture under halothane anesthesia was centrifuged and the plasma was separated. Equal volumes of about 30% Intralipid® and plasma (approximately 2 ml each) were combined and vortexed. Approximately 1.0 μCi of titriated bupivacaine (specific activity 0.81 Ci/mole) was added to the mixture to a final bupivacaine concentration of about 93 μg/ml. This mixture was vortexed again then separated into aliquots of about 1 ml. These aliquots were allowed to sit undisturbed for about one hour at about 38° C., then centrifuged at about 10,000 g for about 10 minutes. High speed centrifugation separated each of these mixtures into a clear aqueous phase (about 0.85 ml) under a lipid phase (about 0.15 ml). The latter comprised a clear layer beneath a very thin white cap. The cap was removed then redissolved in saline to a total volume of about 1 ml. Aliquots of this solution and the aqueous plasma phase were then analyzed for tritiated bupivacaine content by liquid scintillation counting. The bupivacaine lipid:aqueous partition coefficient was given by the ratio of bupivacaine in the combined lipid phase (following correction for saline dilution) to the bupivacaine in the aqueous phase. This experiment was performed in triplicate.

CCCCNc1ccc(C(=O)OCCN(C)C)cc1 [tetracaine]
logP [1]: 3.49

COC(=O)[C@H]1[C@@H](OC(=O)c2ccccc2)C[C@@H]2CC[C@H]1N2C [cocaine]
time to asystole (rats): 368 ± 27 s | mean time to hypotension (40 mmHg) (rats; n=8): 143 ± 22 s

Nc1nnc(-c2cccc(Cl)c2Cl)c(N)n1 [lamotrigine]
logP [1]: −0.19

COc1ccc([C@@H]2Sc3ccccc3N(CCN(C)C)C(=O)[C@@H]2OC(C)=O)cc1 [diltiazem]
logP [1]: 4.53

CCCCN1CCCCC1C(=O)Nc1c(C)cccc1C (racemic) [bupivacaine]
mean plasma bupivacaine concentration at the time of asystole [2]: 93.3 ± 7.6 µg/mL | logP [1]: 3.64 | LD50 at 5 min [3]: 12.5 mg/kg | Median bupivacaine lethal dose (Male Sprague-Dawley rats; saline pretreatment (group 1), 0.75% bupivacaine 10 mg/kg/min to asystole, n=6): 17.8 mg/kg | lethal bupivacaine dose, lower end of range among all animals (Male Sprague-Dawley rats; single animal receiving saline pretreatment): about 12.7 mg/kg | percent of total bupivacaine dissolved in the lipid phase ([4]; equal volumes of about 30% Intralipid and plasma, lipid volume about 15% of total): about 75.3% | lipid:aqueous ratio of bupivacaine concentrations ([4]; equal volumes of about 30% Intralipid and rat plasma, about 38 °C, about 93 μg/ml, +/- standard error, triplicate): 11.9+/−1.77

CC(NC(C)(C)C)C(=O)c1cccc(Cl)c1 (stereo not drawn) [bupropion]
logP [1]: 3.47

CCCN1CCCC[C@H]1C(=O)Nc1c(C)cccc1C [ropivacaine]
logP [1]: 3.11

Cc1cccc(C)c1NC(=O)C1CCCCN1C (stereo not drawn) [mepivacaine]
logP [1]: 2.04
